According to patent US20040121304A1, “Method for screening for progesterone receptor isoform-specific ligands and for tissue-selective progesterone receptor ligands” (priority 2004, published 2004):

How the values were obtained:
[1] = molecular target: T1, hPR-A (progesterone receptor isoform A) (Homo sapiens, UniProt P06401); assay: Transactivation assay, SK-N-MC cells stably transfected with hPR-A and MTV-LUC reporter; format: cell-based; settings: for Emax / antagonism efficacy (PR-A): SK-N-MC hPR-A/MTV-LUC cells, 24 h incubation; for Emax: LUC activity relative to R5020 10^-7 mol/l = 100%, 1% ethanol = 0%, read-out: Agonism efficacy (PR-A); for antagonism efficacy (PR-A): inhibition of LUC induction by 10^-10 mol/l R5020
T1 construct: expressed in transfected cells; host or cells: SK-N-MC (human neuroblastoma) cells, stably transfected with phPR-2 (PR-A plasmid) plus pRSV-neo and pMTV-LUC
T1 sequence (P06401 1-769 isoform P06401-2): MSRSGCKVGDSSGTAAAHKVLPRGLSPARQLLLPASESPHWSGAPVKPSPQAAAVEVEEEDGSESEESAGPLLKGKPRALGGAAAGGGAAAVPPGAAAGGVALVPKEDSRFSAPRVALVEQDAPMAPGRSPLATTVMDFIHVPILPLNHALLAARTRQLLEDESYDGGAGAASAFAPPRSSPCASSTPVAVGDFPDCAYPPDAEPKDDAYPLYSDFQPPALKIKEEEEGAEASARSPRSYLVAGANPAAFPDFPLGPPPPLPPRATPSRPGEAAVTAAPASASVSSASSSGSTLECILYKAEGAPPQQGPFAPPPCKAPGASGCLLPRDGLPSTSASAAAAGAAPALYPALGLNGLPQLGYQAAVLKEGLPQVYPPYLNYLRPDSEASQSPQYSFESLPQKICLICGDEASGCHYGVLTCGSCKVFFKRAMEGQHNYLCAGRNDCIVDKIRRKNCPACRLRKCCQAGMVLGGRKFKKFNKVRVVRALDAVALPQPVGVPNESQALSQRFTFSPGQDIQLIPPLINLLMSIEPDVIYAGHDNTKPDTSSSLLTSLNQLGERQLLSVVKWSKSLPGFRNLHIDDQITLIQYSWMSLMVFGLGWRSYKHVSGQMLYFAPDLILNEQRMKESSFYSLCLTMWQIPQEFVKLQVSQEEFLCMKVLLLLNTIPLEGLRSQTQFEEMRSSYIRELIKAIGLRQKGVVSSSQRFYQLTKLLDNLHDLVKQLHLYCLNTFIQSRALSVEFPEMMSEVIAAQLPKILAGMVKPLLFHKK
Experimental: (§1) The method for screening for isoform-specific PR ligands according to the present invention is carried out with first and second SK-N-MC cells stably transfected with a plasmid expressing the hPR-A (first cells) or the hPR-B (second cells) and the LUC reporter gene linked to the hormonally responsive MTV promoter. A detailed description of how the cell lines according to the invention and used in this Example may be obtained is given in Example 5.
(§2) The cells are cultured in Minimum Essential Medium with Earl's Salts (S-MEM, without L-glutamine; Gibco BRL, no. 21090-022), supplemented with 10% fetal calf serum (FCS), penicillin 100U/streptomycin 100 μg/ml (Biochrom, no. A2213), L-glutamine 4 mmol/l (Gibco BRL, no. 25030-024), sodium pyruvate 1 mmol/l (Biochrom, no. L0473) and 1× non-essential amino acids (Biochrom, no. K0293) at a temperature of 37° C. and in an atmosphere of 5% carbon dioxide.
(§3) For the transactivation assay, the cells are seeded onto 96-well dishes (2×10^4 cells/dish) and cultured in a medium as described above, with the exception that the FCS is replaced by a 3% charcoal stripped FCS. 48 hours later, cells are contacted with prediluted test compounds. For determination of agonistic activity, cells are cultured in the presence of increasing concentrations (10^−6 to 10^−11 mol/l) of test compounds. As a positive control for reporter gene induction cells are treated with 10^−6 to 10^−11 mol/l R5020 (promegestone). As a negative control for reporter gene induction, cells are cultured in 1% ethanol. For determination of antagonistic activity, cells are treated with 10^−10 mol/l R5020 and additionally with increasing concentrations (10^−6 to 10^−11 mol/l) of test compounds. As a positive control for inhibition of reporter gene transcription, cells are cultured in increasing concentrations (10^−7 to 10^−12 mol/l) of the antiprogestin mifepristone. As a negative control for inhibition of reporter gene transcription, cells are cultured in 1% ethanol.
(§4) After incubation with test compounds for 24 hours, the medium is removed and cells are lysed with 20 μl of lysis buffer (Luciferase Assay System E 153A; Promega) and under agitation of the plate for 10 min. After addition of 30 μl of luciferase reagent (Luciferase Assay System E 151A+152A; Promega) within 30 seconds per plate, the activity of the luciferase reporter gene product is determined in the cell lysates by means of a Microlite ML 3000 microtiter plate luminometer (Dynatech) in cycle mode.
(§5) Evaluation of the response gives the efficacy [%] for both agonism and antagonism, and evaluation of the EC50 (for agonism) and IC50 (for antagonism) values gives the potency [nM]. Calculation of these values is conducted as follows:
(§6) Calculation of Agonistic Activity:
(§7) The LUC activity [%] for the measured data points is calculated as follows: [formula]
(§8) and CO=0% stimulation (ethanol, 1%).
(§9) Thus, the efficacy [%] is determined according to: [formula]
(§10) The potency [nM], i.e. the EC50, is determined graphically.
(§11) Calculation of Antagonistic Activity:
(§12) wherein CI=0% inhibition (R5020, 10^−10 mol/l) (corresponds to 100% stimulation)
(§13) and CO=100% inhibition (EtOH, 1%) (corresponds to 0% stimulation)
(§14) The potency [nM], i.e. the IC50, is determined graphically.

[2] = molecular target: T2, hPR-B (progesterone receptor isoform B) (Homo sapiens, UniProt P06401); assay: Transactivation assay, SK-N-MC cells stably transfected with hPR-B and MTV-LUC reporter; format: cell-based; settings: for Emax / antagonism efficacy (PR-B): SK-N-MC hPR-B/MTV-LUC cells, 24 h incubation; for Emax: LUC activity relative to R5020 10^-7 mol/l = 100%, 1% ethanol = 0%, read-out: Agonism efficacy (PR-B); for antagonism efficacy (PR-B): inhibition of LUC induction by 10^-10 mol/l R5020; for Difference of agonism efficacies (PR-B - PR-A): indicating PR-B selectivity
T2 construct: expressed in transfected cells; host or cells: SK-N-MC (human neuroblastoma) cells, stably transfected with pRSVhPR-neo (built from pRC/RSV and hPR-1) and pMTV-LUC
T2 sequence (P06401 1-933): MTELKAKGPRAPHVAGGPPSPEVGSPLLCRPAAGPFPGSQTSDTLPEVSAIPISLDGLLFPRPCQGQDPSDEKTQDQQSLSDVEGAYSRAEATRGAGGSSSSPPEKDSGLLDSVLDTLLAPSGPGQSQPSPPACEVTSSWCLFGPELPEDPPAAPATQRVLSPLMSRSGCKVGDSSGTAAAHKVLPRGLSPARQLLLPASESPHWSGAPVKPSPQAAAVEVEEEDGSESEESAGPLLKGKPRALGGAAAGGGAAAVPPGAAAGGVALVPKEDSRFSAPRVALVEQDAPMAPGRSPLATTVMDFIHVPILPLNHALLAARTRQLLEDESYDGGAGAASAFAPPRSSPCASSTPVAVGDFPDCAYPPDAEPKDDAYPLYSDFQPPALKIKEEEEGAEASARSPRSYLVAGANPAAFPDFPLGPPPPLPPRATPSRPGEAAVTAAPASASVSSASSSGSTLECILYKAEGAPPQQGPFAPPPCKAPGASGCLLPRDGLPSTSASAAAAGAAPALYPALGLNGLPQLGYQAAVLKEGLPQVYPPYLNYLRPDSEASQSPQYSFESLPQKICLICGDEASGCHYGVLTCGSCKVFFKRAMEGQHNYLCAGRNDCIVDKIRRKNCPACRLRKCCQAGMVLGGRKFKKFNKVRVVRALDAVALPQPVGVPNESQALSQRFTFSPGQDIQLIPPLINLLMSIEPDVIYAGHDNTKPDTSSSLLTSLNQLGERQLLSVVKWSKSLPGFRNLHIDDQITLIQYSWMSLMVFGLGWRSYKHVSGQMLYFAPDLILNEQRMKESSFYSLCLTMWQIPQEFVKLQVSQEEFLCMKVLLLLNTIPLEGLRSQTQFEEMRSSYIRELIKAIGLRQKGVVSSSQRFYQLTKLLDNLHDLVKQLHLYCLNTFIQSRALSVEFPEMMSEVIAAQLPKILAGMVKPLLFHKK
Experimental: as §1, §2, §3, §4, §5, §6, §7, §8, §9, §10, §11, §12, §13, §14

| Structure (SMILES) | Emax [1] [%] | antagonism efficacy (PR-A) [1] | Emax [2] [%] | antagonism efficacy (PR-B) [2] | Difference of agonism efficacies (PR-B - PR-A) [2] [%] | Difference of agonism efficacies (PR-A - PR-B) ([1]; indicating PR-A selectivity) [%] | Difference of antagonism efficacies (PR-A - PR-B) ([1]; indicating PR-A selectivity) [%] |
| --- | --- | --- | --- | --- | --- | --- | --- |
| O=C1OCc2cc(NC(=O)C(O)(CC3(c4cccc(Br)c4)CC3)C(F)(F)F)ccc21 (stereo not drawn) [1-(3-bromophenyl)-N-(1,3-dihydro-1-oxo-5-isobenzofuranyl)-α-hydroxy-α-(trifluoromethyl)-cyclopropanepropanamide] | 81 | none | 106 | none | 25 | – | – |
| CC(CC(O)(CNc1ccc2c(c1)COC2=O)C(F)(F)F)c1ccccc1 (stereo not shown) [5-{[2-hydroxy-4-phenyl-2-(trifluoromethyl)pentyl]amino}-1(3H)-isobenzofiuranone] | 39.9 | none | 56.8 | none | 17 | – | – |
| C#C[C@]1(O)C=CC2C3CCC4=CC(=O)CC[C@@]45CC=C[C@@H](C[C@@]21C)C35 (stereo partly drawn) [9,11-dihydro-17-hydroxy-(11α,17α)-6′H-benzo[10,9,11]-19-norpregna-4,9(11), 15-trien-20-yn-3-one] | 131 | none | 114 | none | – | 17 | – |
| C#C[C@]1(O)C=CC2C3CCC4=CC(=O)CC[C@@]45CCC=C(C[C@@]21CC)C35 (stereo partly drawn) [13-ethyl-5α,9-dihydro-17-hydroxy-(17α)-6′H-benzo[10,9,11]-18,19-dinorpregna-4,9(11),15-trien-20-yn-3-one] | 85 | none | 108 | none | 23 | – | – |
| C=C[C@]1(O)CCC2C3CCC4=CC(=O)CC[C@@]45CC=C[C@@H](C[C@@]21CC)C35 (stereo partly drawn) [13-ethyl-9,11-dihydro-17-hydroxy-(11α,17α)-6′H-benzo[10,9,11]-18,19-dinorpregna-4,9(11),20-trien-3-one] | 132 | none | 108 | none | – | 24 | – |
| C#C[C@]1(O)CCC2C3CCC4=CC(=O)CC[C@@]45CC=C[C@@H](C[C@@]21CC)C35 (stereo partly drawn) [13-ethyl-9,11-dihydro-17-hydroxy-(11α,17α)-6′H-benzo[10,9,11]-18,19-dinorpregna-4,9(11)-dien-20-yn-3-one] | 129 | none | 108 | none | – | 21 | – |
| CC(=O)O[C@]1(C(C)=O)CCC2C3C=C(Cl)C4=CC(=O)CC[C@@]45CC[C@@H](C[C@@]21C)C35 (stereo partly drawn) [17-(acetyloxy)-6-chloro-9,11-dihydro-(11α)-cyclopenta[10,9,11]-19-norpregna-4,6,9(11)-triene-3,20-dione] | 29 | 45% | 50 | 30% | 21 | – | 15 |
| CC(=O)O[C@]1(C(C)=O)CCC2C3C[C@H](C)C4=CC(=O)CC[C@@]45CC=C[C@@H](C[C@@]21C)C35 (stereo partly drawn) [17-(acetyloxy)-9,11-dihydro-6-methyl-(6α,11α)-6H′benzo[10,9,11]-19-norpregna-4,9(11)-diene-3,20-dione] | 50 | none | 90 | none | 40 | – | – |
| CC(=O)O[C@]1(C(C)=O)CC[C@H]2[C@@H]3C=C(C)C4=CC(=O)CC[C@]4(C)[C@H]3CC[C@@]21C [17-acetoxy-6-methyl-4,6-pregnadiene-3,20-dione] | 35 | none | 81 | none | 46 | – | – |
